In patent US8846746B2, “Pyrazole compound and pharmaceutical use thereof” (Japan Tobacco Inc., priority 2011, dated 2014):

These compounds were tested against human SGLT1 (Homo sapiens (Human), UniProt P13866) (assay: SGLT1 inhibitory activity: 14C-AMG uptake into CHO-K1 cell line stably expressing human SGLT1). Details: 14C-AMG uptake, CHO-K1 cells expressing human SGLT1.
Type: cell-based
How it was run: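 Human SGLT1 was stably expressed in CHO-K1 cells. Cells were first held 20 min in sodium-free buffer, then exposed to compound in Na(+)/BSA buffer with tracer and AMG (2 mM in the added solution).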

Chain of human SGLT1 (P13866 whole entry): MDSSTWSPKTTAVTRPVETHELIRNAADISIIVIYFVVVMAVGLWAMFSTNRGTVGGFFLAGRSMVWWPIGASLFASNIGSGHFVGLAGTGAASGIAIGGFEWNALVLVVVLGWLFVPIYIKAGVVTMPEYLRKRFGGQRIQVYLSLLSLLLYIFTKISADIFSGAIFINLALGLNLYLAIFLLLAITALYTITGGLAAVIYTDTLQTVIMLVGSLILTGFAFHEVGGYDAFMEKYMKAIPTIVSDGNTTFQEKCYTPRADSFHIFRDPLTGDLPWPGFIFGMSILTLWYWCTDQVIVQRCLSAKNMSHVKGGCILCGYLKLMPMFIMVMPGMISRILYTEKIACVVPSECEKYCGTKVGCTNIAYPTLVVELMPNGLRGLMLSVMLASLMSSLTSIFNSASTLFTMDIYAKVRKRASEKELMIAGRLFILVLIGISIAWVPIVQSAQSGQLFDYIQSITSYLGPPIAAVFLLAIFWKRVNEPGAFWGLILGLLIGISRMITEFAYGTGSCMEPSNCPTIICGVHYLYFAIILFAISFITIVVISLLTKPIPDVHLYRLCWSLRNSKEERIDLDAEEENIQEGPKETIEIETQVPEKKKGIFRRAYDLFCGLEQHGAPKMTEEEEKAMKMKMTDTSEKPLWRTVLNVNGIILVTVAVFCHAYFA

Row | Structure (SMILES) | IC50 [µM]
1 | O=C1C[C@@H](C(=O)Nc2cc(C3=CCCCC3)n(-c3ccccc3)n2)CN1 [Example 47] | 0.42
2 | Cc1ccccc1-n1nc(NC(=O)[C@H]2CNC(=O)[C@@H]2C)cc1-c1cccc(C(F)(F)F)c1 [Example 225] | 0.0039
3 | O=C1C[C@@H](C(=O)Nc2cc(-c3cccc(OCC(F)(F)F)c3)n(-c3ccc(Cl)cc3)n2)CN1 [Example 159] | 0.017
4 | CCCc1cccc(-c2cc(NC(=O)[C@@H]3CNC(=O)C3)nn2-c2ccccc2Cl)c1 [Example 101] | 0.0024
5 | CCC(F)(F)c1cccc(-c2cc(NC(=O)[C@H]3CNC(=O)C3)nn2-c2cccc(OC)c2)c1 [Example 164] | 0.0026
6 | CCCn1nc(NC(=O)C2CNC(=O)C2)cc1-c1ccccc1 (racemic) [Example 12] | 4.4
7 | O=C1C[C@@H](C(=O)Nc2cc(-c3cccc(Cl)c3)n(-c3ccccc3)n2)CN1 [Example 38] | 0.13
8 | C[C@H]1C(=O)NC[C@@H]1C(=O)Nc1cc(-c2cccc(C(F)(F)F)c2)n(-c2ccccc2Cl)n1 [Example 203] | 0.0014
9 | CC(C)(C)c1cccc(-c2cc(NC(=O)[C@H]3CNC(=O)C3)nn2CCc2ccccc2)c1 [Example 109] | 0.065
10 | CC1(C)C=C(c2cc(NC(=O)[C@H]3CNC(=O)C3)nn2-c2ccccc2)CCC1 [Example 79] | 0.022
11 | O=C1C[C@@H](C(=O)Nc2cc(C3CCCCCC3)n(-c3ccccc3)n2)CN1 [Example 62] | 0.47
12 | CCC(F)(F)c1cccc(-c2cc(NC(=O)[C@H]3CNC(=O)C3)nn2-c2ccc(F)cc2)c1 [Example 173] | 0.013

Same assay, conditions: 14C-AMG uptake, CHO-K1 cells stably expressing human SGLT1

Row | Structure (SMILES) | IC50 [µM]
13 | Cc1cc(CO[C@H](C)C(F)(F)F)cc(-c2cc(NC(=O)[C@@H]3CNC(=O)C3)nn2-c2ccccc2)c1 [Example 410] | 0.022
14 | CC(C)(C)OCc1cccc(-c2cc(NC(=O)[C@@H]3CNC(=O)C3)nn2-c2ccccc2)c1 [Example 313] | 0.0195
15 | O=C1C[C@H](C(=O)Nc2cc(-c3cccc(COCCC(F)(F)F)c3)n(-c3ccccc3)n2)CN1 [Example 281] | 0.0215
16 | CCCc1cccc(-c2cc(NC(=O)[C@@H]3CNC(=O)C3)nn2-c2cccc(OC3CCCC3)c2)c1 [Example 382] | 0.012
17 | CC(C)(C)COCc1cccc(-c2cc(NC(=O)[C@@H]3CNC(=O)C3)nn2-c2ccccc2)c1 [Example 315] | 0.0155
18 | O=C1NC[C@H](C(=O)Nc2cc(-c3cccc(COCCC(F)(F)F)c3)n(-c3ccccc3)n2)N1 [Example 354] | 0.079
19 | CCCc1cccc(-c2cc(NC(=O)C34CNC(=O)C3C4)nn2-c2ccccc2)c1 (stereo not drawn) [Example 249, 4-oxo-3-azabicyclo[3.1.0]hexane-1-carboxylic acid[1-phenyl-5-(3-propylphenyl)-1H-pyrazol-3-yl]amide] | 0.039
20 | CC(C)(OCc1cc(F)cc(-c2cc(NC(=O)[C@@H]3CNC(=O)C3)nn2-c2ccc(F)cc2)c1)C(F)(F)F [Example 595] | 0.01
21 | O=C1C[C@H](C(=O)Nc2cc(-c3cccc(OC(F)(F)F)c3)n(-c3cccc(OCc4ccccc4)c3)n2)CN1 [Example 436] | 0.019
22 | CCCc1cccc(-c2cc(NC(=O)[C@H]3CNC(=O)N3CCOC)nn2-c2ccccc2)c1 [Example 346] | 0.0027
23 | CCCc1cccc(-c2cc(NC(=O)[C@@H]3CNC(=O)C3)nn2-c2ccc(F)c(OC(C)C)c2)c1 [Example 391] | 0.00375
24 | O=C1C[C@H](C(=O)Nc2cc(-c3cccc(COCC(F)(F)F)c3)n(-c3cccc(OC4COC4)c3)n2)CN1 [Example 509] | 0.038
25 | O=C1NC[C@H](C(=O)Nc2cc(-c3cccc(OC(F)(F)F)c3)n(-c3ccccc3)n2)O1 [Example 264] | 0.039
26 | O=C1C[C@@H](C(=O)Nc2cc(-c3cccc(COCCC(F)(F)F)c3)n(-c3ccccc3)n2)CN1 [Example 282] | 0.0099
27 | CCCc1cccc(-c2cc(NC(=O)[C@@H]3CNC(=O)C3)nn2-c2ccc(F)c(OCCOC)c2)c1 [Example 414] | 0.0115
28 | O=C1NC[C@H](C(=O)Nc2cc(-c3cccc(COCC(F)(F)F)c3)n(-c3ccccc3)n2)O1 [Example 305] | 0.029
29 | C[C@H](OCc1cccc(-c2cc(NC(=O)[C@@H]3CNC(=O)C3)nn2-c2ccccc2)c1)C(F)(F)F [Example 335] | 0.016
30 | O=C1NC[C@@H](C(=O)Nc2cc(-c3cccc(COCC(F)(F)F)c3)n(-c3ccccc3)n2)N1 [Example 558] | 0.038
31 | C[C@@H](OCc1cc(Cl)cc(-c2cc(NC(=O)[C@H]3CNC(=O)N3)nn2-c2ccc(F)cc2)c1)C(F)(F)F [Example 598] | 0.047
32 | C[C@@H](OCc1cc(F)cc(-c2cc(NC(=O)[C@H]3CNC(=O)N3)nn2-c2ccc(F)cc2)c1)C(F)(F)F [Example 240, (R)-2-oxoimidazolidine-4-carboxylic acid{1-(4-fluorophenyl)-5-[3-fluoro-5-((R)-2,2,2-trifluoro-1-methylethoxymethyl)phenyl]-1H-pyrazol-3-yl}amide] | 0.02
33 | CCCc1cccc(-c2cc(NC(=O)[C@@H]3CNC(=O)C3)nn2-c2cccc(CC)c2)c1 [Example 393] | 0.00525
34 | CCCc1cccc(-c2cc(NC(=O)[C@@H]3CNC(=O)N3CC(F)(F)F)nn2-c2ccccc2)c1 [Example 384] | 0.048
35 | COC(C)(C)c1cccc(-c2cc(NC(=O)C3CNC(=O)NC3)nn2-c2ccccc2)c1 [Example 271] | 0.29
36 | CCCc1cccc(-c2cc(NC(=O)[C@@H]3CNC(=O)C3)nn2-c2cccc(OC(C)(C)C)c2)c1 [Example 435] | 0.00345
37 | CC(C)(OCc1cc(F)cc(-c2cc(NC(=O)[C@H]3CNC(=O)N3)nn2-c2ccc(Cl)cc2)c1)C(F)(F)F [Example 603] | 0.016
38 | CC(C)(C)CCOc1cccc(-c2cc(NC(=O)C3CCC(=O)NC3)nn2-c2ccccc2)c1 (single isomer, unassigned) [Example 342] | 0.045
39 | CC(C)(OCc1cc(F)cc(-c2cc(NC(=O)[C@@H]3CNC(=O)C3)nn2-c2ccccc2)c1)C(F)(F)F [Example 567] | 0.014
40 | CC(C)Oc1cccc(-n2nc(NC(=O)[C@@H]3CNC(=O)C3)cc2-c2cccc(OC(F)(F)F)c2)c1F [Example 478] | 0.036
41 | C[C@@H](OCc1cc(Cl)cc(-c2cc(NC(=O)[C@H]3CNC(=O)N3)nn2-c2ccccc2)c1)C(F)(F)F [Example 597] | 0.06

Same assay, conditions: CHO-K1, at 0.00265 uM

Row | Structure (SMILES) | inhibition at 0.00265 µM [%]
42 | C[C@H]1C(=O)NC[C@@H]1C(=O)Nc1cc(-c2cccc(CO[C@H](C)C(F)(F)F)c2)n(-c2ccccc2)n1 [Example 563] | 57

Same assay, conditions: CHO-K1, at 0.1 uM

Row | Structure (SMILES) | inhibition at 0.1 µM [%]
43 | O=C1C[C@H](C(=O)Nc2cc(-c3cccc(CO[C@@H]4CCCOC4)c3)n(-c3ccccc3)n2)CN1 [Example 538] | 33
44 | COCc1cccc(-c2cc(NC(=O)[C@@H]3CNC(=O)C3)nn2-c2ccccc2)c1 [Example 265] | 17

Same assay, conditions: at 0.1 uM

Row | Structure (SMILES) | human SGLT1 % Inhibition [%]
45 | O=C1COC(C(=O)Nc2cc(-c3cccc(OC(F)(F)F)c3)n(-c3ccccc3)n2)CN1 (stereo not drawn) [Example 278] | 34
